Earlier results on one compound are cited in patent publication CN111214447A, “一种甲磺酸沙芬酰胺固体组合物及其制备方法” (Beijing Wanquan Dezhong Medical Biological Technology Co Ltd, priority 2018, dated 2020).

By solubility is commonly meant the concentration that dissolves in the medium under given conditions.

Molecules are shown by their SMILES. ≈ marks a conversion by molar mass, not a printed value.

The conditions of this data set: aqueous medium, pH=7.

Regarding `C[C@H](NCc1ccc(OCc2cccc(F)c2)cc1)C(N)=O` [沙芬酰胺, 甲磺酸], the solubility is 10 µg/mL (≈ 33.1 µM).
